# Tests used:
# [1] = tested on: SARS-CoV-2 isolate USA-WA1/2020; assay: SARS-CoV-2 infection in PSC-human lung cells, qRT-PCR (Example 7); format: cell-based
# [2] = Seven day oral pharmacokinetics in Syrian hamsters; format: in vivo
# Description: ODBG-P-RVn in 0.1M sodium carbonate/bicarbonate buffer, pH 9.0, was administered to Syrian Hamsters by oral gavage every 12 hours for seven days. ODBG-P-RVn was present as the sodium salt.
# FIG. 4A and FIG. 4B depict the seven day oral pharmacokinetics in Syrian hamsters. Syrian hamsters were given vehicle or ODBG-P-RVn by oral gavage every 12 hours for 7 days. Groups of 3 animals received vehicle or drug at doses of 16.9 and 13.2 mg/kg. Animals were weighed daily and monitored for clinical signs.
# Analytical Methods: ODBG-P-RVn: Hamster plasma samples (10 μL) containing ODBG-P-RVn and K2EDTA as the anticoagulant were added to polypropylene tubes containing water (100 μL), internal standard solution (10 μL; 1,000 ng/mL of ODE-P-RVn in ACN:DMF (1:1, v/v)), and 10 μL of ACN:DMF (1:1, v/v). The solutions were mixed, then acidified with phosphoric acid, 85% w/v:water (1:19, v/v; 10 μL), mixed, then diluted with 200 μL of IPA, mixed, then diluted with 500 μL of water, and mixed. The samples were extracted with a Sep-Pak® tC18 96-well solid phase extraction plate (25 mg; Waters, Milford, MA). Extraction occurred under positive pressure conditions using nitrogen. Samples were washed serially with 1 mL of water:acetonitrile:formic acid (475:25:0.5, v/v/v) and 0.4 mL of water:acetonitrile:formic acid (350:150:0.5, v/v/v) before being serially eluted with 100 μL and 150 μL of water:{acetonitrile:isopropyl alcohol (1:1, v/v)}:formic acid:ammonium formate:citric acid solution, 2% w/v (15:85:0.1:0.1:0.1, v/v/v/w/v). The citric acid solution was prepared as water:citric acid monohydrate (20:0.4, v/w). After elution, 100 μL of water was added to each sample. The ODBG-P-RVn extracts were analyzed using an Agilent 1200 HPLC system (Agilent, Santa Clara, CA) coupled to an API5500 mass analyzer (SCIEX, Foster City, CA). Analytes were chromatographically separated using a Dacapo DX-C18 MF column (100×2 mm, 2.5 μm; ImtaktUSA, Portland, OR) using a mobile phase system consisting of Mobile Phase A (water:formic acid:[water:ammonium formate:citric acid (25:5:0.5, v/w/w)](1.000:1:1, v/v/v) and Mobile Phase B (acetonitrile:isopropyl alcohol:formic acid:[water:ammonium formate:citric acid (25:5:0.5, v/w/w)](800:200:1:1, v/v/v/v). The total analytical run time was 4.5 minutes. The mobile phase was nebulized using heated nitrogen in a Turbo-V source/interface set to electrospray positive ionization mode. The ionized compounds were detected using multiple reaction monitoring with transitions m/z 788.4>229 (V2043) and 668.4>467.2 (V2041). This method is applicable for measuring ODBG-P-RVn concentrations ranging from 6.25 to 3,000 ng/mL using 10.0 μL of plasma for extraction. The peak areas of ODBG-P-RVn and RVn were acquired using Analyst v. 1.6.2 (SCIEX, Framingham, MA). The calibration curve was obtained by fitting the peak area ratios of the analyte/I.S. and the standard concentrations to a linear equation with 1/x2 weighting, using Analyst. The equation of the calibration curve was then used to interpolate the concentrations of the analyte in the samples using their peak area ratios. The peak areas used for the calculations were not rounded.
# The solutions were mixed and centrifuged at 16,000 g for five minutes. […] The GS-441524 extracts were analyzed using an Acquity UPLC system (Waters, Milford, MA) coupled to a G2-S QTof mass analyzer (Waters, Milford, MA). […]
# [3] = tested on: SARS-CoV-2; assay: SARS-CoV-2 infection assay in Huh7.5 cells, nucleocapsid immunofluorescence (Example 6); format: cell-based; conditions: MOI 0.1, 48 hours
# [4] = tested on: SARS-CoV-2; assay: SARS-CoV-2 infection assay in Calu-3 cells, nucleocapsid immunofluorescence (Example 6); conditions: MOI 0.01, 44 hour
# [5] = tested on: Huh7.5 cells; assay: Cell viability assay CellTiter-Glo, Huh7.5 cells (Example 7)
# [6] = tested on: SARS-CoV-2; assay: SARS-CoV-2 infection assay in TMPRSS2-Vero cells, nucleocapsid immunofluorescence (Example 6); format: cell-based; conditions: MOI 0.01, 32 hours
# [7] = tested on: USA WA-01 strain of SARS CoV-2; assay: Anti-coronavirus activity in Vero E6 cells, qPCR of spike RNA (Example 2); format: cell-based
# Description: (§1) Ten thousand Vero E6 cells were seeded in 100 microliters of culture medium in 96 well plates. The following day serial two-fold dilutions of antiviral compounds or the DMSO-containing vehicle were added to each well. The USA WA-01 strain of SARS CoV-2 was added to each well at a multiplicity of infection of 0.1 thirty minutes later. Cells were incubated for 48 hours, washed twice in PBS and lysed with TRIzol. RNA was extracted using Directzol micro RNA columns. RNA was made into cDNA and assayed for the SARS CoV-2 spike protein and for a housekeeping gene (RPLPO) RNA by qPCR. Data represents the average of duplicate wells. Cellular cytotoxicity was also measured in VERO E6 cells. […] Cytotoxicity (CC50) was assessed using a commercially available MTT assay.
# [8] = tested on: Hep-2 cells; assay: Cell viability assay for the RSV table (CC50); format: cell-based
# [9] = tested on: VERO E6 cells; assay: Cell viability assay CellTiter-Glo, Vero E6 cells (Example 7)
# [10] = tested on: Human Coronavirus 229E; assay: Human Coronavirus 229E infected MRC-5 cells, CPE by MTT (Example 8); format: cell-based; conditions: 229E in MRC-5 cells, 72 hours
# [11] = tested on: VERO E6 cells; assay: Cellular cytotoxicity in Vero E6 cells, MTT assay (Example 2); format: cell-based
# Description: as §1
# [12] = tested on: SARS-CoV-2 isolate USA-WA1/2020; assay: SARS-CoV-2 infection in Calu-3 cells, qRT-PCR (Example 7); format: cell-based
# [13] = tested on: Caco-2 cells; assay: Cell viability assay CellTiter-Glo, Caco-2 cells (Example 7); conditions: Caco-2 cells, CellTiter-Glo
# [14] = Vero E6 cells, MOI 0.1, 48 hours
smiles,measurement,setting,value
"CCCCCCCCCCCCCCCCCCOC[C@H](COP(=O)(O)OC[C@H]1O[C@@](C#N)(c2ccc3c(N)ncnn23)[C@H](O)[C@@H]1O)OCc1ccccc1 [Compound 15d, 1-O-octadecyl-2-O-benzyl-sn-glyceryl-phospho-RVn]",Selectivity,"[1]; CC50/EC50, PSC-human lung cells",410
same,EC90,"[1]; PSC-human lung cells, MOI 0.01, 48 hours",260 nM
same,ODBG-P-RVn plasma levels at 12 hours versus EC90 in all cell lines studied,[2]; day 1 and 7,above the EC90
same,time in which plasma levels fell by 50%,"[2]; hamster, in vivo, po",about 5 hours
same,"tolerability, clinical signs",[2]; oral gavage every 12 hours for seven days,well tolerated
same,EC50,[3],138 nM
same,EC90,[3],377 nM
same,EC50,[4],164 ± 20 nM
same,EC90,[4],536 ± 138 nM
same,CC50,[5],62900 nM
same,EC50,[6],205 nM
same,EC90,[6],432 nM
same,Selectivity Index,"[7]; CC50/EC50, Vero E6",>238
same,EC50,[7]; [14],210 nM
same,EC90,[7]; [14],560 nM
same,CC50,[8],14700 nM
same,CC50,[9],97900 nM
same,EC50,[10],150 nM
same,CC50,[11],> 50000 nM
same,Selectivity,"[12]; CC50/EC50, Calu-3 cells",327
same,EC90,"[12]; Calu-3 cells, MOI 0.01, 48 hours",330 nM
same,EC50,"[12]; Calu-3 cells, MOI 0.01, 48 hours, listed as ODBG-P-RVn",300 nM
same,CC50,[13],88400 nM

# Source: patent US12594292B2, “Antiviral prodrugs, intermediate-and long-acting formulations and methods” (priority 2022, dated 2026)
